Patent publication US20240174642A1, “HETEROCYCLIC COMPOUNDS CAPABLE OF ACTIVATING STING” (Boehringer Ingelheim International GmbH, priority 2022, published 2024)
Like-named read-outs stand apart in the source and are kept apart here.

Assays:
dog STING (dSTING) = assay: Dog differential scanning fluorimetry (DSF) assay, thermal shift of dog STING protein; assay type: binding; details: 100 μM compound, 3 μM recombinant dog STING (residues 149 to 375), 5× SYPRO Orange, 2% DMSO
Source text: The protein used for the biophysical experiments was a recombinant dog STING protein comprising its cytosolic cGAMP binding ectodomain. A codon optimized DNA sequence (for expression in Escherichia coli) encoding amino acid residues 149 to 375 of dog STING was synthesized by GeneArt (Regensburg, Germany) and inserted into a pET17b E. coli expression vector. The protein construct encodes an N-terminal 8× His-tag followed by tobacco etch virus protease (TEV) cleavage site and the above STING gene sequence. The resulting protein sequence for the used dog STING protein (SEQ ID No. 1) is listed below:
For expression of the above recombinant dog STING, the construct was transformed into E. coli BL21 DE3 strain and grown in shake flasks in LB-medium at 15° C. Expression was induced by addition of isopropyl β-D-1-thiogalactopyranoside to a final concentration of 1 mM and cultures shaken overnight. Cell pellets were centrifuged and stored at −70° C. until further use. Protein was purified by cell thawing in lysis buffer (20 mM TRIS-HCl, pH 8, 500 mM NaCl, 1 mM DTT, 0.5 mg/ml lysozyme, Complete Protease Inhibitor (Roche) and DNase (Roche)), followed by metal affinity purification using Ni-NTA resins and elution buffer consisting of 20 mM TRIS-HCl, pH 8, 500 mM NaCl, 1 mM DTT, 300 mM imidazole. Cleavage of the His-Tag using TEV-protease took place during dialysis in size exclusion buffer (20 mM TRIS-HCl, pH 8, 100 mM NaCl, 1 mM DTT) over night. To further purify the target protein a reverse Nickel affinity column was used and the flow through was applied to a size exclusion chromatography. The peak fraction was collected and concentrated to 5 mg/mL.
Dye fluorescence is quenched in aqueous environment and increases upon association of the dye with the hydrophobic parts of the unfolding protein. […] The inflection point of the curve represents the “melting” temperature of the protein (Tm) which is calculated numerically using the Boltzmann equation.
The thermal stability of the dog STING protein was measured in assay buffer containing 20 mM Tris, 150 mM NaCl at pH7.5. The assay uses 384-Well qPCR Plates (Catalog #781358, BRAND), Microseal®‘B’ Adhesive Seals for PCR Plates (Catalog #MSB-1001, BIO-RAD) and was run on a CFX384 Real-Time System (Bio-Rad). A DMSO stock solution of SYPRO orange (SIGMA 55692-500UL) was prepared. Compound stock solutions (10 mM in DMSO) were diluted 1:2 in DMSO to an intermediate compound concentration of 5 mM and then further diluted 1:40 in assay buffer resulting in a compound concentration of 125 μM and 2.5% DMSO. Fluorescent dye stock solution (5000× SYPRO Orange) was then mixed with target protein and buffer to a concentration of 15 μM Protein and 25× SYPRO Orange. 2 μl of this protein-dye-mixture was added to 8 μl compound solution. Final volume was 10 μL. 3-6 well positions were used as negative control (protein with 2% DMSO). The plates were prepared for duplicate measurement and centrifuged for 2 min at 1000 g. In the measurement, 160 cycles of 0.5° C. were used (temperature ramp 15 s/cycle, 15° C. to 95° C.).
Final Assay concentrations for compound characterization were 100 μM compound, 3 μM target protein, 5× SYPRO Orange, and 2% DMSO in 10 μl. All dispensing steps were performed using a HamiltonStar pipetting robot (Hamilton).
Dissociation curves were processed in Bio-Rad CFX Manager. Peak type was set to “negative”. Compound codes for screen were assigned in the plate layout.
Two replicates of TM measurements were averaged, and the standard deviation was calculated. In cases of SD>1.5° C. the measurement was repeated.
The melting point (Tm) obtained for STING protein alone was subtracted from T obtained for protein incubated with ligand to generate ΔTm values.

STING = assay: Dog whole blood (dWB) assay, IFNb secretion by ELISA; assay type: cell-based; details: 4 h incubation at 37° C., % control relative to cGAMP stimulated control, read-out: EC50, cytokine secretion in dog whole blood (dWB) culture system as determined by canine Interferon-beta (IFNb) ELISA
Description: In this assay, freshly collected canine blood is incubated with a STING agonist, and interferon beta levels in the supernatant are quantified by ELISA. […] In accordance with the invention, a combination of a high dDSF and low dWB is especially favorable.
For the detection of STING activation in physiological environment dog whole blood (dWB) was stimulated by the cyclic dinucleotide cGAMP or a test compound. Pathway activity was monitored by measuring the IFNb production.
Compounds were delivered as 10 mM DMSO solution, diluted and transferred by using an Echo acoustic dispenser to the 384well assay plate (Greiner #781182), pre-filled with 10 μl 1× HBSS in each well (10× HBSS (+Ca/+Mg), #14065-049, Gibco). Typically, 8 concentrations were used with the highest concentration at 10 μM in the final assay volume followed by approximately 1:4 dilution steps. DMSO concentration was set to 0.1% in the final assay volume. The 384-well assay plate contained 20 test compounds and DMSO in control and cGAMP standard wells. The dog whole blood was collected as Na-Citrate blood (e.g., 3.8% in Monovettes from Sarstedt) and kept at 4° C. overnight until use in the assay. 80 μl of the whole blood samples were transferred to each well of the 384-well assay plates filled with compound/1×HBSS. Blood plates were kept at room temperature for 60 minutes and continuous shaking with 450 rpm, covered with the lid, but not sealed. A 10× cGAMP assay solution was diluted from a 2 mM stock solution in 1×HBSS immediately before use at room temperature. 10 μl of the 10× cGAMP/HBSS were added to the high control wells, whereas HBSS only was added to all compound and low control wells. After covering assay plates with the lid, blood plates were kept for a 4 h incubation at 37° C. in the incubator, without shaking. For the detection of IFNb in dog plasma the ELISA Kit for Canine Interferon Beta (Biotrend #SEA222Ca) was used. Whole blood assay plates were centrifuged at 1000 g for 10 minutes at 8° C. 40 μl of supernatant was transferred with a 96 well pipetting robotics from the 384 well whole blood plate to the corresponding 96 well ELISA plate, pre-filled with […] assay diluent in each well. Plates were sealed with microplate seals and kept at 4° C. overnight again. ELISA plates were brought to room temperature, followed by a 1 h incubation at 37° C. in the incubator. Detection Reagent A working solution was prepared by diluting Detection Reagent A 1:100 in Assay Reagent A. Liquid was then removed from the 96 well ELISA plate to add 100 μL Detection Reagent A working solution to each well. ELISA plates were covered with the plate sealer and incubated for 1 hour at 37° C. in the incubator. The 1× Wash buffer was prepared by diluting the 30× Wash Buffer Concentrate in H2O. Detection Reagent B working solution was prepared by diluting Detection Reagent B 1:100 in Assay Reagent B. The ELISA plates were washed three times with 350 μl wash buffer and afterwards inverted and blotted against absorbent paper to remove any liquid. 100 μL of Detection Reagent B working solution was added to each well of the ELISA plates, which are then covered with the plate sealer and incubated for 30 minutes at 37° C. in the incubator. After incubation the ELISA assay plates were washed five times with 350 μl wash buffer and were again inverted and blotted against absorbent paper to remove any remaining liquid. 90 μL of TMB Substrate was added to each well of the ELISA plates, which were then covered with the plate sealer and incubated for 15 minutes at 37° C. in the incubator. The reaction was stopped by adding 50 μL stop solution and absorbance was measured at 450 nm immediately.
For data evaluation and calculation, % control calculation of each well was based on the mean of high (cGAMP stimulated control) and mean of low (unstimulated control) controls by using the following standard 4 parameter logistic regression formula: […]

| Compound | Delta TM, interaction with dog STING as determined by DSF (dDSF) (dog STING (dSTING)) | EC50 (STING; Canis lupus familiaris) | EC50 (STING) |
| --- | --- | --- | --- |
| Cc1cccc2c(-c3cccc4nn(C)cc34)nn(-c3ccc(N4C[C@H]5C[C@@H]4C[C@@H]5C(=O)O)nc3)c12 (single isomer, unassigned) [Example 19] | 33.5 °C | 278 nM |  |
| Cc1cccc2c(-c3cccc4nn(C)cc34)nn(-c3ccc(N4CCOC(CC(=O)O)C4)nc3)c12 (stereo not drawn) [Example 3, 2-[4-(5-{2′,7-dimethyl-1H,2′H-[3,4′-biindazol]-1-yl}pyridin-2-yl)morpholin-2-yl]acetic acid] | 26.1 °C | 3060 nM |  |
| Cc1cccc2c(-c3cccc4nn(C)cc34)nn(-c3ccc(N4CC5CC4CC5C(=O)O)nc3)c12 (stereo not drawn) [Example 4, 2-(5-{2″,7-dimethyl-1H,2″H-[3,4″-biindazol]-1-yl}pyridin-2-yl)-2-azabicyclo[2.2.1]heptane-5-carboxylic acid] | 29.0 °C | 704 nM |  |
| Cc1cccc2c(-c3cccc4nn(C)cc34)nn(-c3ccc(N4CC[C@@H](CC(=O)O)C4)nc3)c12 [Example 2, 2-[(3S)-1-(5-{2″,7-dimethyl-1H,2″H-[3,4″-biindazol]-1-yl}pyridin-2-yl)pyrrolidin-3-yl]acetic acid] | 33.3 °C | 212 nM |  |
| Cc1cccc2c(-c3cccc4nn(C)cc34)nn(-c3ccc(N4CC[C@H](CC(=O)O)C4)nc3)c12 [Example 1, 2-[(3R)-1-(5-{2″,7-dimethyl-1H,2″H-[3,4″-biindazol]-1-yl}pyridin-2-yl)pyrrolidin-3-yl]acetic acid] |  | 308 nM |  |
| Cc1cccc2c(-c3cccc4nn(C)cc34)nn(-c3ccc(N4C[C@@H]5C[C@H]4C[C@H]5C(=O)O)nc3)c12 (single isomer, unassigned) [Example 18] | 31.5 °C | 519 nM |  |
| CC(=O)N1C[C@@H]2CC[C@H]1CN2c1ccc(-n2nc(-c3cccc4nn(C)cc34)c3cccc(C)c32)cn1 (single isomer, unassigned) [Example 15] | 30.0 °C | 95.1 nM |  |
| CC(=O)N1C[C@H]2C[C@@H]1CN2c1ccc(-n2nc(-c3cccc4nn(C)cc34)c3cccc(C)c32)cn1 [Example 11, 1-[(1R,4R)-5-(5-{2″,7-dimethyl-1H,2″H-[3,4″-biindazol]-1-yl}pyridin-2-yl)-2,5-diazabicyclo[2.2.1]heptan-2-yl]ethan-1-one] | 28.3 °C |  | 620 nM |
| (1S,4R,5R)-2-(5-{2″,7-dimethyl-1H,2″H-[3,4″-biindazol]-1-yl}pyridin-2-yl)-2-azabicyclo[2.2.1]heptane-5-carboxylic acid and 1R,4S,5S)-2-(5-{2′,7-dimethyl-1H,2′H-[3,4′-biindazol]-1-yl}pyridin-2-yl)-2-azabicyclo[2.2.1]heptane-5-carboxylic acid [Example 5] | 33.5 °C |  | 529 nM |
| Cc1cccc2c(-c3cccc4nn(C)cc34)nn(-c3ccc(N4C[C@@H]5CC[C@H]4C[C@@H]5C(=O)O)nc3)c12 (single isomer, unassigned) [Example 9] | 33.8 °C | 652 nM |  |
| CC(=O)N1C[C@H]2CC[C@@H]1CN2c1ccc(-n2nc(-c3cccc4nn(C)cc34)c3cccc(C)c32)cn1 (single isomer, unassigned) [Example 14] | 23.8 °C | 2920 nM |  |
| Cc1cccc2c(-c3cccc4nn(C)cc34)nn(-c3ccc(N4C[C@H]5CC[C@@H]4C[C@H]5C(=O)O)nc3)c12 (single isomer, unassigned) [Example 10] | 35.8 °C | 185 nM |  |
| CC(=O)N1CC2CCC1CN2c1ccc(-n2nc(-c3cccc4nn(C)cc34)c3cccc(C)c32)cn1 (stereo not drawn) [Example 13, 1-[5-(5-{2′,7-dimethyl-1H,2′H-[3,4′-biindazol]-1-yl}pyridin-2-yl)-2,5-diazabicyclo[2.2.2]octan-2-yl]ethan-1-one] | 28.3 °C | 282 nM |  |
| Cc1cccc2c(-c3cccc4nn(C)cc34)nn(-c3ccc(N4C[C@@H]5CC[C@H]4C[C@H]5C(=O)O)nc3)c12 (single isomer, unassigned) [Example 7] | 15.5 °C |  |  |
| Cc1cccc2c(-c3cccc4nn(C)cc34)nn(-c3ccc(N4C[C@H]5CC[C@@H]4C[C@@H]5C(=O)O)nc3)c12 (single isomer, unassigned) [Example 8] | 24.8 °C |  |  |
